These results are taken from paper PMC7453296 (Journal of Pesticide Science, 2020).

The target of assay [1] is HcbA3C-His (HcbA3, NADH:FMN oxidoreductase). As to the kind of experiment: fluorescence quenching titration of flavin. Format: binding, Nocardioides sp. PD653. As to conditions: 50 nM FMN, 20 mM KPi pH 7.5, 20°C; oxidized FMN.
Assay [2] has as its system HcbA3C-His (HcbA3, NADH:FMN oxidoreductase). As to the kind of experiment: NADH oxidation at […] nm, steady-state ping-pong fit. Format: biochemical, Nocardioides sp. PD653. As to conditions: 20 mM KPi pH 7.5, 20°C, ping-pong bi-bi.

A word on the Kd: it is the constant that tells how readily two partners part at equilibrium. The low end stands for higher affinity, the high end for lower affinity. The Km is the concentration of substrate that gives half-maximal velocity. As to `Cc1cc2nc3c(=O)[nH]c(=O)nc-3n(C[C@H](O)[C@H](O)[C@H](O)COP(=O)(O)O)c2cc1C` [FMN], in assay [1], the Kd is 0.75 ± 0.17 µM. Moreover, the Km in assay [2] (NADH 10–120 µM) is 4.43 ± 0.69 µM.
As to `NC(=O)C1=CN([C@@H]2O[C@H](COP(=O)(O)OP(=O)(O)OC[C@H]3O[C@@H](n4cnc5c(N)ncnc54)[C@H](O)[C@@H]3O)[C@@H](O)[C@H]2O)C=CC1` [NADH], the Michaelis-Menten constant (Km) in assay [2] (FMN 1–8 µM) is 51.7 ± 11.6 µM.
